Data published in ChEMBL document CHEMBL1201862, “PubChem BioAssay data set” (2004).
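Test compounds were applied to cells in 96-well plates for 48 hours at 5 doses. GI50 is the concentration that inhibits growth by half.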 Calls of active or inactive are those of the source. No stated cut-off is given here; in the data, active = GI50 up to about 1.1 µM and inactive = higher.

Legend:
Assay in all cases: NCI-60 cell line screen, 48 h
[1] = test system: DLD-1
[2] = test system: KM-20L2
[3] = test system: DMS-273
[4] = test system: LXFL 529
[5] = test system: SNB-78
[6] = test system: XF498
[7] = test system: HOP-18
[8] = test system: DMS-114
[9] = test system: RXF 631

Measured: GI50

C[C@]12CC[C@@H]3c4ccccc4CC[C@H]3[C@@H]1CC[C@@H]2O
inactive: [1] 72.6 µM | [2] 33.8 µM | [3] 51.1 µM | [4] > 100 µM | [5] > 100 µM

CCC1CN2CCc3cc(OC)c(OC)cc3C2CC1CC1c2cc(OC)c(OC)cc2CCN1C(=O)C1CCCN1C(=O)OCc1ccccc1 (stereo not given)
inactive: [6] 16.6 µM | [1] 15.6 µM | [2] 16.7 µM | [3] 16.3 µM | [7] 23.1 µM | [8] 13.9 µM | [9] 18.5 µM | [4] 16.3 µM | [5] 16 µM

CC(O)c1ccc(C(O)/C(=N\NC(=O)c2ccncc2)c2nc3ccc([N+](=O)[O-])cc3nc2O)cc1 (stereo not given)
inactive: [6] > 100 µM | [1] > 100 µM | [2] 33.3 µM | [3] 83.8 µM | [8] 16.7 µM | [9] > 100 µM | [4] 54.6 µM | [5] > 100 µM

CC(C)C1CC2C(=O)N(c3ccccc3)C(=O)C2c2[nH]c3ccccc3c21 (stereo not given)
inactive: [6] 23.3 µM | [1] 42.5 µM | [2] 73.6 µM | [3] 9.84 µM | [8] 20.4 µM | [5] 22.4 µM

CCOc1ccccc1NC(=O)C(=O)CC(=O)c1sc(Nc2nnc(-c3ccc(Cl)c(Cl)c3)o2)nc1C
inactive: [1] 88.7 µM | [2] > 100 µM | [3] 59 µM | [7] > 100 µM | [8] > 100 µM | [4] > 100 µM | [5] > 100 µM

COc1ccc(C(=O)C(c2ccc(OC)cc2)C2(O)C(=O)Nc3c2ccc(Cl)c3C)cc1 (stereo not given)
inactive: [2] > 100 µM | [7] 58.9 µM | [8] > 100 µM | [9] 34.9 µM | [4] > 100 µM | [5] > 100 µM

CCCCCCC(=O)C/C(CCC(=O)N(Cc1ccccc1)Cc1ccccc1)=N\NC(N)=O
inactive: [6] > 100 µM | [2] > 100 µM | [3] > 100 µM | [7] > 100 µM | [8] > 100 µM | [9] > 100 µM | [4] > 100 µM | [5] > 100 µM

O=C1c2ccccc2C2(O)c3cc4ccccc4cc3OC12O (stereo not given)
inactive: [1] > 100 µM | [2] > 100 µM | [3] 46.8 µM | [7] 69.7 µM | [8] 25.1 µM | [4] 55.5 µM | [5] 46.7 µM

O=C(NCc1ccncc1)C1COc2cc(-c3cc(=O)c4ccccc4o3)ccc2O1 (stereo not given)
inactive: [6] > 100 µM | [1] > 100 µM | [2] > 100 µM | [4] > 100 µM | [5] > 100 µM

CC(=O)NN1C(=O)C(Cc2ccccc2)c2ccccc21 (stereo not given)
inactive: [6] > 100 µM | [1] > 100 µM | [2] > 100 µM | [3] > 100 µM | [7] > 100 µM | [8] > 100 µM | [9] > 100 µM | [5] > 100 µM

COc1ccc(OC)c(NC(=O)C(=O)CC(=O)c2sc(-n3nc(-c4ccccc4)cc3-c3ccccc3)nc2C)c1
inactive: [1] > 100 µM | [2] > 100 µM | [3] > 100 µM | [8] > 100 µM | [9] > 100 µM | [4] > 100 µM | [5] > 100 µM

CC1(C2COC(=O)C2)SCCCS1 (stereo not given)
inactive: [6] > 100 µM | [1] > 100 µM | [2] > 100 µM | [3] > 100 µM | [7] > 100 µM | [8] > 100 µM | [4] > 100 µM

N#C/C(=C\c1ccc2[nH]ccc2c1)C(=O)NCCCCNC(=O)/C(C#N)=C/c1ccc2[nH]ccc2c1
inactive: [6] > 100 µM | [1] > 100 µM | [2] > 100 µM | [3] > 100 µM | [8] > 100 µM | [4] > 100 µM | [5] > 100 µM

N#C/C(=C\c1ccccc1F)C(=O)c1ccccc1
inactive: [6] > 100 µM | [2] > 100 µM | [3] > 100 µM | [8] > 100 µM | [4] > 100 µM | [5] > 100 µM

CC(C)(C)c1ccc2c(c1)S(=O)(=O)Nc1ccccc1NS(=O)(=O)c1cc(C(C)(C)C)ccc1OCCOCCOCCO2
inactive: [1] > 100 µM | [3] > 100 µM | [7] > 100 µM | [8] > 100 µM | [9] 97.3 µM | [5] 59.8 µM

CCSc1nc(-c2ccc(OC)cc2)c(C#N)c(=O)n1C1OCC(OC(C)=O)C(OC(C)=O)C1OC(C)=O (stereo not given)
inactive: [1] > 100 µM | [2] > 100 µM | [3] > 100 µM | [7] 30 µM | [8] 72.4 µM | [4] 44.6 µM | [5] > 100 µM

CC(C)(C)C(=O)OCC(COC(=O)C(C)(C)C)[N+](=O)[O-]
inactive: [6] > 100 µM | [1] > 100 µM | [3] > 100 µM | [8] > 100 µM | [4] > 100 µM

CCN(CC)C(=O)c1c(Cl)cc(N(CC)CC)oc1=O
inactive: [6] > 100 µM | [1] > 100 µM | [2] > 100 µM | [3] > 100 µM | [7] > 100 µM | [8] > 100 µM | [4] > 100 µM | [5] > 100 µM

CCSC(SCC)c1cc2c(cc1Br)OCO2
inactive: [6] 20.4 µM | [1] 41 µM | [2] 11.5 µM | [3] 3.7 µM | [8] 15.5 µM | [9] 13.1 µM | [5] 26.5 µM

CC(=O)OCC1OC(n2c(-c3ccc(N)cc3)cc(-c3ccco3)c(C#N)c2=O)C(OC(C)=O)C(OC(C)=O)C1OC(C)=O (stereo not given)
inactive: [1] > 50 µM | [2] > 50 µM | [3] 5.26 µM | [7] > 50 µM | [8] 2.64 µM | [9] 44.3 µM | [4] 11.1 µM | [5] > 50 µM

ClC1=C(Cl)C(Cl)(Cl)c2c3c(c4c(c21)C(Cl)(Cl)C(Cl)=C4Cl)C(Cl)(Cl)C(Cl)=C3Cl
inactive: [6] > 100 µM | [2] > 100 µM | [3] > 100 µM | [8] > 100 µM | [4] > 100 µM

C#CCOCn1cnc2c(Cl)ncnc21
inactive: [6] > 100 µM | [1] > 100 µM | [3] > 100 µM | [7] > 100 µM | [8] 41.4 µM | [9] > 100 µM | [4] > 100 µM | [5] > 100 µM
